What is called IC50 is the midpoint of a concentration-inhibition curve. A higher IC50 goes with a need for much substance.

Structures can show the parent of a compound that is named as a salt.

Consider 21 compounds from patent US8017612B2, “Piperazine compound and use thereof as a HCV polymerase inhibitor” (priority 2006, dated 2011).

Assay [1] addresses T1, HCV polymerase (NS5B) type 1b (Hepatitis C virus genotype 1b, UniProt P26663).
T1 construct: a region encoding NS5B (J Virol 1991 March, 65(3), 1105-13, 544 amino acids after deletion of 47 amino acids on the C-terminal); 6xHis (C); made in house; host or cells: Escherichia coli
Briefly: Assay of enzyme (HCV polymerase) inhibitory activity, type 1b enzyme. It is filed as biochemical, HCV BK strain (type 1b). The method in brief:
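IC50 derived from [3H]UTP incorporation into TCA-insoluble RNA, compared with and without test compound. Reaction (25 °C, 60 min, Tris pH 7.5, 5 mM MgCl2): E. coli-expressed 1b NS5B Δ47 with His tag at 0.5 μg/ml, 5 μg/ml run-off substrate RNA, ATP/GTP/CTP 50 μM, UTP 2 μM.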

Assay [2] addresses T2, HCV polymerase (NS5B) type 1a (Hepatitis C virus genotype 1a, UniProt P26664).
T2 construct: made in house; host or cells: Escherichia coli (by the 'similar method' of the 1b enzyme)
Put plainly: Assay of enzyme (HCV polymerase) inhibitory activity, type 1a enzyme. In kind it is biochemical, HCV type 1a (cloned from the blood of patients). The method in brief: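 Reactions ran 60 min at 25° C in 20 mM Tris-HCl pH 7.5, 5 mM MgCl2, 50 mM NaCl, holding genotype 1a NS5B (1.5 μg/ml, Δ47 C-terminus, 6His), substrate RNA 5 μg/ml, UTP 2 μM with tritiated UTP and other NTPs 50 μM. IC50 derived from incorporated radiolabel in filter-trapped RNA relative to uninhibited reaction.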

The mark [3] stands for this setting: HCV polymerase inhibitory activity IC50, 1b, type 1b enzyme.
Where [4] appears, read: HCV polymerase inhibitory activity IC50, 1a, type 1a enzyme.
The mark [5] stands for this setting: HCV polymerase inhibitory activity (IC50), 1b, type 1b enzyme 0.5 μg/ml, 25° C., 60 min.
Where [6] appears, read: HCV polymerase inhibitory activity (IC50), 1a, type 1a enzyme 1.5 μg/ml, 25° C., 60 min.

On to `CCCc1ccc(CNC(=O)[C@H]2CN(c3ccc(C(=O)OC(C)(C)C)s3)CCN2S(=O)(=O)c2ccc(OC(F)(F)F)cc2)cc1` [Example 728, 5-[(R)-3-(4-propyl-benzylcarbamoyl)-4-(4-trifluoromethoxy-benzenesulfonyl)-piperazin-1-yl]-thiophene-2-carboxylic acid tert-butyl ester], for which the half-inhibitory concentration (IC50) in assay [1] (setting [3]) and in assay [2] (setting [4]) was 100 to 1000 nM each time.

On to `CC(=O)N1CCN(S(=O)(=O)c2ccc(C(C)C)cc2)[C@@H](C(=O)NCCc2ccc(C(=O)O)cc2)C1` [Example 393, 4-(2-{[(R)-4-acetyl-1-(4-isopropyl-benzenesulfonyl)-piperazine-2-carbonyl]-amino}-ethyl)-benzoic acid], for which the IC50 in assay [1] (setting [5]) and in assay [2] (setting [6]) was greater than 1000 nM in each case.

As to `CCn1ncc2sc(N3CCN(S(=O)(=O)c4ccc(C(F)(F)F)cc4)[C@@H](C(=O)NCc4ccc(OC(F)(F)F)cc4)C3)nc2c1=O` [Example 1037, (R)-4-(5-ethyl-4-oxo-4,5-dihydro-thiazolo[4,5-d]pyridazin-2-yl)-1-(4-trifluoromethyl-benzenesulfonyl)-piperazine-2-carboxylic acid 4-trifluoromethoxy-benzylamide], the IC50 in assay [1] (setting [3]) and in assay [2] (setting [4]) was less than 100 nM in each case.

In the case of `CCCc1ccc(CNC(=O)[C@H]2CN(c3cnc4cnccc4n3)CCN2S(=O)(=O)c2ccc(-c3cccc(OCC(=O)O)c3)cc2)cc1` [Example 779, {4′-[(R)-2-(4-propyl-benzylcarbamoyl)-4-pyrido[3,4-b]pyrazin-2-yl-piperazine-1-sulfonyl]-biphenyl-3-yloxy}-acetic acid], the half-inhibitory concentration (IC50) in assay [1] (setting [3]) and in assay [2] (setting [4]) was less than 100 nM each time.

Consider `CCC(F)(F)c1ccc(CNC(=O)[C@H]2CN(c3cnc(C#N)cn3)CCN2S(=O)(=O)c2ccc(OC(F)(F)F)cc2)cc1` [Example 591, (R)-5′-cyano-4-(4-trifluoromethoxy-benzenesulfonyl)-3,4,5,6-tetrahydro-2H-[1,2′]bipyrazinyl-3-carboxylic acid 4-(1,1-difluoro-propyl)-benzylamide], for which the half-inhibitory concentration (IC50) in assay [1] (setting [5]) and in assay [2] (setting [6]) was less than 100 nM in each case.

Regarding `Cc1nc(N2CCN(S(=O)(=O)c3ccc(OC(F)(F)F)cc3)[C@@H](C(=O)NCc3ccc(C(C)C)cc3)C2)sc1C(=O)N[C@@H](C)C(=O)O` [Example 370, (S)-2-({2-[(R)-3-(4-isopropyl-benzylcarbamoyl)-4-(4-trifluoromethoxy-benzenesulfonyl)-piperazin-1-yl]-4-methyl-thiazole-5-carbonyl}-amino)-propionic acid], the figures for the IC50 in assay [1] (setting [5]) and in assay [2] (setting [6]) were less than 100 nM and 100 to 1000 nM, respectively.

Consider `O=C(NCc1ccc(OC(F)(F)F)cc1)[C@H]1CN(c2nc3nc(C4CC4)[nH]c(=O)c3s2)CCN1S(=O)(=O)c1ccc(OC(F)(F)F)cc1` [Example 1108, (R)-4-(5-cyclopropyl-7-oxo-6,7-dihydro-thiazolo[4,5-d]pyrimidin-2-yl)-1-(4-trifluoromethoxy-benzenesulfonyl)-piperazine-2-carboxylic acid 4-trifluoromethoxy-benzylamide], for which the concentration for half-maximal inhibition (IC50) was less than 100 nM in assay [1] (setting [3]) and 100 to 1000 nM in assay [2] (setting [4]).

Take `O=C(NCc1ccc(OCC(F)(F)F)cc1)[C@H]1CN(c2cnc3cncnc3n2)CCN1S(=O)(=O)c1ccc(OC(F)(F)F)cc1` [Example 763, (R)-4-pteridin-7-yl-1-(4-trifluoromethoxy-benzenesulfonyl)-piperazine-2-carboxylic acid 4-(2,2,2-trifluoro-ethoxy)-benzylamide]: the IC50 in assay [1] (setting [3]) and in assay [2] (setting [4]) was less than 100 nM throughout.

In the case of `O=C(O)c1cncc2sc(N3CCN(S(=O)(=O)c4ccc(OC(F)(F)F)cc4)[C@@H](C(=O)NCc4ccc(OC(F)F)c(F)c4)C3)nc12` [Example 1109, 2-[(R)-3-(4-difluoromethoxy-3-fluoro-benzylcarbamoyl)-4-(4-trifluoromethoxy-benzenesulfonyl)-piperazin-1-yl]-thiazolo[5,4-c]pyridine-7-carboxylic acid], the concentration for half-maximal inhibition (IC50) in assay [1] (setting [3]) and in assay [2] (setting [4]) was less than 100 nM each time.

Regarding `CCCc1ccc(CNC(=O)[C@H]2CN(c3cnc(CO)cn3)CCN2S(=O)(=O)c2ccc(CC)cc2)cc1` [Example 478, (R)-4-(4-ethyl-benzenesulfonyl)-5′-hydroxymethyl-3,4,5,6-tetrahydro-2H-[1,2′]bipyrazinyl-3-carboxylic acid 4-propyl-benzylamide], the IC50 in assay [1] (setting [5]) and in assay [2] (setting [6]) was less than 100 nM throughout.

For `COc1ccc(CNC(=O)C2CN(C(C)=O)CCN2S(=O)(=O)c2ccc(C(C)C)cc2)cc1` (stereo not drawn) [Example 52, 4-acetyl-1-(4-isopropyl-benzenesulfonyl)-piperazine-2-carboxylic acid 4-methoxy-benzylamide], the IC50 in assay [1] (setting [5]) and in assay [2] (setting [6]) was greater than 1000 nM in each case.

Turning to `CCCc1ccc(CNC(=O)[C@H]2CN(c3cnc4cncc(C(=O)O)c4n3)CCN2S(=O)(=O)c2ccc(CC)cc2)cc1` [Example 815, 2-[(R)-4-(4-ethyl-benzenesulfonyl)-3-(4-propyl-benzylcarbamoyl)-piperazin-1-yl]-pyrido[3,4-b]pyrazine-8-carboxylic acid], the IC50 in assay [1] (setting [3]) and in assay [2] (setting [4]) was less than 100 nM each time.

`CC(=O)N1CCN(S(=O)(=O)c2ccc(C(C)C)cc2)C(C(=O)NCc2ccc(Cl)c(Cl)c2)C1` (stereo not drawn) [Example 100, 4-acetyl-1-(4-isopropyl-benzenesulfonyl)-piperazine-2-carboxylic acid 3,4-dichloro-benzylamide]: the IC50 in assay [1] (setting [5]) and in assay [2] (setting [6]) was greater than 1000 nM each time.

Turning to `CCC(F)(F)c1ccc(CNC(=O)[C@H]2CN(c3nc4cn[nH]c(=O)c4s3)CCN2S(=O)(=O)c2ccc(OC(F)(F)F)cc2)cc1` [Example 821, (R)-4-(7-oxo-6,7-dihydro-thiazolo[4,5-d]pyridazin-2-yl)-1-(4-trifluoromethoxy-benzenesulfonyl)-piperazine-2-carboxylic acid 4-(1,1-difluoro-propyl)-benzylamide], the 50% inhibitory concentration (IC50) in assay [1] (setting [3]) and in assay [2] (setting [4]) was less than 100 nM in each case.

For the compound `O=C(NCc1ccc(OC(F)F)c(F)c1)[C@H]1CN(c2nc3nc(C4CC4)[nH]c(=O)c3s2)CCN1S(=O)(=O)c1ccc(C(F)(F)F)cc1` [Example 1114, (R)-4-(5-cyclopropyl-7-oxo-6,7-dihydro-thiazolo[4,5-d]pyrimidin-2-yl)-1-(4-trifluoromethyl-benzenesulfonyl)-piperazine-2-carboxylic acid 4-difluoromethoxy-3-fluoro-benzylamide], the IC50 in assay [1] (setting [3]) and in assay [2] (setting [4]) was less than 100 nM each time.

In the case of `CCC(F)(F)c1ccc(CNC(=O)[C@H]2CN(C(=O)Nc3nnc(C)s3)CCN2S(=O)(=O)c2ccc(OC(F)(F)F)cc2)cc1` [Example 488, (R)-4-(4-trifluoromethoxy-benzenesulfonyl)-piperazine-1,3-dicarboxylic acid 3-[4-(1,1-difluoro-propyl)-benzylamide] 1-[(5-methyl-[1,3,4]thiadiazol-2-yl)-amide]], the 50% inhibitory concentration (IC50) was less than 100 nM in assay [1] (setting [5]) and 100 to 1000 nM in assay [2] (setting [6]).

Turning to `COC(=O)c1ccc(NC(=O)N2CCN(S(=O)(=O)c3ccc(C(F)(F)F)cc3)[C@@H](C(=O)NCc3ccc(C(C)C)cc3)C2)cc1` [Example 276, 4-{[(R)-3-(4-isopropyl-benzylcarbamoyl)-4-(4-trifluoromethyl-benzenesulfonyl)-piperazine-1-carbonyl]-amino}-benzoic acid methyl ester], the 50% inhibitory concentration (IC50) in assay [1] (setting [5]) and in assay [2] (setting [6]) was 100 to 1000 nM each time.

As for `Cc1nc(N2CCN(S(=O)(=O)c3ccc(C(F)(F)F)cc3)[C@@H](C(=O)NCc3ccc(C(C)C)cc3)C2)oc1C(=O)O` [Example 371, 2-[(R)-3-(4-isopropyl-benzylcarbamoyl)-4-(4-trifluoromethyl-benzenesulfonyl)-piperazin-1-yl]-4-methyl-oxazole-5-carboxylic acid trifluoroacetate], the concentration for half-maximal inhibition (IC50) in assay [1] (setting [5]) and in assay [2] (setting [6]) was 100 to 1000 nM each time.

For `CCC(F)(F)c1ccc(CNC(=O)[C@H]2CN(c3cnc4cnccc4n3)CCN2S(=O)(=O)c2ccc(C(F)(F)F)cc2)cc1` [Example 735, (R)-4-pyrido[3,4-b]pyrazin-2-yl-1-(4-trifluoromethyl-benzenesulfonyl)-piperazine-2-carboxylic acid 4-(1,1-difluoro-propyl)-benzylamide], the IC50 in assay [1] (setting [3]) and in assay [2] (setting [4]) was less than 100 nM throughout.

Regarding `O=C(O)c1n[nH]c(=O)c2sc(N3CCN(S(=O)(=O)c4ccc(OC(F)(F)F)cc4)[C@@H](C(=O)NCc4ccc(OC(F)(F)F)cc4)C3)nc12` [Example 874, 7-oxo-2-[(R)-4-(4-trifluoromethoxy-benzenesulfonyl)-3-(4-trifluoromethoxy-benzylcarbamoyl)-piperazin-1-yl]-6,7-dihydro-thiazolo[4,5-d]pyridazine-4-carboxylic acid], the IC50 in assay [1] (setting [3]) and in assay [2] (setting [4]) was less than 100 nM throughout.

For `CCC(F)(F)c1ccc(CNC(=O)[C@H]2CN(c3cnc4cncnc4n3)CCN2S(=O)(=O)c2ccc(-c3ccccc3)cc2)cc1` [Example 696, (R)-1-(biphenyl-4-sulfonyl)-4-pteridin-7-yl-piperazine-2-carboxylic acid 4-(1,1-difluoro-propyl)-benzylamide], the half-inhibitory concentration (IC50) in assay [1] (setting [3]) and in assay [2] (setting [4]) was less than 100 nM each time.
